Results published in ChEMBL document CHEMBL1201862, “PubChem BioAssay data set” (2004).
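Step 1: Grow cells in 96-well plates. Step 2: Expose to compound for 48 hours at 5 concentrations. Step 3: Interpolate endpoints linearly; if unreached, use highest concentration. GI50 marks 50% less growth.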 Calls of active or inactive are those of the source. No stated cut-off is given here; in the data, active = GI50 up to about 1.1 µM and inactive = higher.

Key:
Assay in all cases: NCI anticancer screen, dose series, 48 h
DU-145 = test system: DU-145
Hs-578T = test system: Hs-578T
786-0 = test system: 786-0
SNB-19 = test system: SNB-19
EKVX = test system: EKVX
SF-539 = test system: SF-539
K562 = test system: K562
HT-29 = test system: HT-29
HCT-15 = test system: HCT-15
KM12 = test system: KM12
SK-MEL-5 = test system: SK-MEL-5
SK-MEL-2 = test system: SK-MEL-2
A498 = test system: A498
PC-3 = test system: PC-3
NCI-H522 = test system: NCI-H522
NCI/ADR-RES = test system: NCI/ADR-RES
CCRF-CEM = test system: CCRF-CEM
SF-295 = test system: SF-295
LOX IMVI = test system: LOX IMVI
RPMI-8226 = test system: RPMI-8226
MDA-MB-435 = test system: MDA-MB-435
RXF 393 = test system: RXF 393
MDA-MB-231 = test system: MDA-MB-231
HCC 2998 = test system: HCC 2998
COLO 205 = test system: COLO 205
NCI-H226 = test system: NCI-H226
OVCAR-8 = test system: OVCAR-8
M14 = test system: M14
MOLT-4 = test system: MOLT-4
BT-549 = test system: BT-549
ACHN = test system: ACHN
SN12C = test system: SN12C
UACC-62 = test system: UACC-62
OVCAR-3 = test system: OVCAR-3
MDA-N = test system: MDA-N
NCI-H460 = test system: NCI-H460
CAKI-1 = test system: CAKI-1
Malme-3M = test system: Malme-3M
U-251 = test system: U-251
SF-268 = test system: SF-268
HL-60 = test system: HL-60
OVCAR-5 = test system: OVCAR-5
SK-OV-3 = test system: SK-OV-3
SR = test system: SR
A549 = test system: A549
NCI-H23 = test system: NCI-H23
SW-620 = test system: SW-620
TK-10 = test system: TK-10
HCT-116 = test system: HCT-116
IGROV-1 = test system: IGROV-1
HOP-62 = test system: HOP-62
OVCAR-4 = test system: OVCAR-4
HOP-92 = test system: HOP-92
MCF7 = test system: MCF7
T47D = test system: T47D
SNB-75 = test system: SNB-75

SMILES: O=c1[nH]/c(=C/c2ccc(OCc3ccccc3)cn2)c(=O)[nH]/c1=C/c1cccnc1
- GI50 (DU-145): 585 nM (active)
- GI50 (Hs-578T): 526 nM (active)
- GI50 (786-0): 474 nM (active)
- GI50 (SNB-19): 718 nM (active)
- GI50 (EKVX): 1.65 µM (inactive)
- GI50 (SF-539): 401 nM (active)
- GI50 (K562): 318 nM (active)
- GI50 (HT-29): 759 nM (active)
- GI50 (HCT-15): 254 nM
- GI50 (KM12): 308 nM (active)
- GI50 (SK-MEL-5): 226 nM (active)
- GI50 (SK-MEL-2): 380 nM (active)
- GI50 (A498): 209 nM (active)
- GI50 (PC-3): 423 nM (active)
- GI50 (NCI-H522): 182 nM (active)
- GI50 (NCI/ADR-RES): 345 nM (active)
- GI50 (CCRF-CEM): 537 nM (active)
- GI50 (SF-295): 284 nM (active)
- GI50 (LOX IMVI): 1.95 µM (inactive)
- GI50 (RPMI-8226): 628 nM (active)
- GI50 (MDA-MB-435): 84.5 nM (active)
- GI50 (RXF 393): 574 nM (active)
- GI50 (MDA-MB-231): 1.92 µM (inactive)
- GI50 (HCC 2998): 1.19 µM (inactive)
- GI50 (COLO 205): 2.07 µM (inactive)
- GI50 (NCI-H226): 904 nM (active)
- GI50 (OVCAR-8): 1.08 µM (active)
- GI50 (M14): 344 nM (active)
- GI50 (MOLT-4): 361 nM (active)
- GI50 (BT-549): 14.2 µM (inactive)
- GI50 (ACHN): 728 nM (active)
- GI50 (SN12C): 417 nM (active)
- GI50 (UACC-62): 192 nM (active)
- GI50 (OVCAR-3): 230 nM (active)
- GI50 (MDA-N): 106 nM (active)
- GI50 (NCI-H460): 410 nM (active)
- GI50 (CAKI-1): 479 nM (active)
- GI50 (Malme-3M): 250 nM (active)
- GI50 (U-251): 581 nM (active)
- GI50 (SF-268): 542 nM (active)
- GI50 (HL-60): 117 nM (active)
- GI50 (OVCAR-5): 1.39 µM (inactive)
- GI50 (SK-OV-3): 703 nM (active)
- GI50 (SR): 500 nM (active)
- GI50 (A549): 804 nM (active)
- GI50 (NCI-H23): 423 nM (active)
- GI50 (SW-620): 420 nM (active)
- GI50 (TK-10): 2.18 µM (inactive)
- GI50 (HCT-116): 342 nM (active)
- GI50 (IGROV-1): 908 nM (active)
- GI50 (HOP-62): 497 nM (active)
- GI50 (OVCAR-4): 1.25 µM (inactive)
- GI50 (HOP-92): > 35.2 µM (inactive)
- GI50 (MCF7): 378 nM (active)
- GI50 (T47D): 458 nM (active)
- GI50 (SNB-75): 452 nM (active)
